Results on ten molecules are retold here after ChEMBL document CHEMBL4118066, “QSAR-driven design, synthesis and discovery of potent chalcone derivatives with antitubercular activity” (Eur J Med Chem, 2017).

For series [1], the system named is Mycobacterium tuberculosis. Kind of series: microbe, parasite or virus in culture. Format: functional. To be noted: H37Rv ATCC 27294, 168 h.
Description: Antitubercular activity against Mycobacterium tuberculosis H37Rv ATCC 27294 after 7 days under normoxic condition by microplate Alamar blue assay
For series [2], the system named is Escherichia coli. The experiment in a line: Antibacterial activity against Escherichia coli ATCC 25922 after 16 to 20 hrs. The format is functional.
The nature of series [3]: in vitro. To be noted: monkey.
Description: Selectivity index, ratio of IC50 for African green monkey Vero cells to MIC90 for Mycobacterium tuberculosis H37Rv ATCC 27294 under normoxic condition
For series [4], the system named is Staphylococcus aureus. Kind of series: Antibacterial activity against Staphylococcus aureus ATCC 29213 after 16 to 20 hrs. The format is functional.
Series [5] relates to Mycobacterium tuberculosis. The experiment in a line: Antitubercular activity against Mycobacterium tuberculosis H37Rv ATCC 27294 treated for 10 days under hypoxic condition followed by 28 hrs of normoxic recovery. The format is functional.
Series [6] relates to Candida albicans. The experiment in a line: Antifungal activity against Candida albicans ATCC 90028 after 36 to 48 hrs. Format: functional.
Series [7] relates to Mycolicibacterium smegmatis. Kind of series: Antimycobacterial activity against Mycobacterium smegmatis ATCC MC2155 after 7 days under normoxic condition by microplate Alamar blue assay. The format is functional. To be noted: str. MC2 155, 168 h.
Series [8] deals with Mycobacteroides chelonae. Kind of series: Antimycobacterial activity against Mycobacterium chelonae ATCC 35752 after 7 days under normoxic condition by microplate Alamar blue assay. The format is functional. To be noted: ATCC 35752, 168 h.
Series [9] has as its system Mycobacteroides abscessus. The experiment in a line: Antimycobacterial activity against Mycobacterium abscessus ATCC 19977 after 7 days under normoxic condition by microplate Alamar blue assay. To be noted: ATCC 19977, 168 h. The format is functional.
The subject of series [10] is Mycobacterium avium. The experiment in a line: Antimycobacterial activity against Mycobacterium avium ATCC 15769 after 7 days under normoxic condition by microplate Alamar blue assay. The format is functional. To be noted: ATCC 15769, 168 h.
In series [11] the test system is Mycobacterium kansasii. The experiment in a line: Antimycobacterial activity against Mycobacterium kansasii ATCC 12478 after 7 days under normoxic condition by microplate Alamar blue assay. Format: functional. To be noted: ATCC 12478, 168 h.
For series [12], the system named is Mycobacterium marinum. The experiment in a line: Antimycobacterial activity against Mycobacterium marinum ATCC 927 after 7 days under normoxic condition by microplate Alamar blue assay. Format: functional. To be noted: ATCC 927, 168 h.

In brackets after ≈: the same amount, converted by molar mass.

Turning to `CC(C)(C)c1ccc(C(=O)/C=C/c2ccc([N+](=O)[O-])o2)cc1`, the MIC90 in [1] was 0.35 µM (≈ 0.105 µg/mL); in series [2] it was more than 10 µM; in series [4] it was more than 10 µM; in series [5], more than 10 µM; in series [6] it was more than 10 µM; in series [7], more than 10 µM. Moreover, the selectivity ratio in series [3] (Vero cells) worked out at 284.
For the molecule `Cc1ccccc1C(=O)/C=C/c1ccc([N+](=O)[O-])o1`, the MIC90 is 0.57 µM (≈ 0.147 µg/mL) in series [1]; more than 10 µM in [2]; more than 10 µM in [8]; more than 10 µM in series [9]; 3.04 µM (≈ 0.782 µg/mL) in series [10]; 1.09 µM (≈ 0.28 µg/mL) in series [4]. Besides, the MIC90 in series [5] was 4.59 µM (≈ 1.18 µg/mL); in series [11], 1.16 µM (≈ 0.298 µg/mL); in series [6], 6.36 µM (≈ 1.64 µg/mL); in series [12], more than 10 µM; in series [7], 9.5 µM (≈ 2.44 µg/mL). Also, the selectivity ratio in series [3] (Vero cells) was 41.
For the molecule `CSc1ccc(C(=O)/C=C/c2ccc([N+](=O)[O-])s2)cc1`, the MIC90 in series [1] is 0.45 µM (≈ 0.137 µg/mL); in [2], more than 10 µM; in series [8], more than 10 µM; in series [9] it was more than 10 µM; in series [10] it was 6.89 µM (≈ 2.1 µg/mL); in [4], more than 10 µM. In addition, the MIC90 was 5.96 µM (≈ 1.82 µg/mL) in [5]; 3.86 µM (≈ 1.18 µg/mL) in series [11]; more than 10 µM in [6]; more than 10 µM in series [12]; more than 10 µM in [7]. Further, the selectivity ratio in [3] (Vero cells) is 222.
Turning to `O=C(/C=C/c1ccc([N+](=O)[O-])o1)c1ccc(-c2ccccc2)cc1`, the MIC90 in [1] was 3.91 µM (≈ 1.25 µg/mL); in [2] it was more than 10 µM; in series [8], more than 10 µM; in [9], more than 10 µM; in [10], 1.27 µM (≈ 0.406 µg/mL); in series [4], more than 10 µM. The MIC90 was 3.18 µM (≈ 1.02 µg/mL) in series [5]; 0.49 µM (≈ 0.156 µg/mL) in series [11]; more than 10 µM in [6]; more than 10 µM in [12]; more than 10 µM in [7]. For the same molecule, the selectivity ratio in series [3] (Vero cells) turned out to be 25.
As for `O=C(/C=C/c1ccc([N+](=O)[O-])s1)c1ccc(-n2ccnc2)cc1`, the MIC90 in [1] was 0.19 µM (≈ 0.0618 µg/mL); in series [2], more than 10 µM; in series [8], 1.63 µM (≈ 0.53 µg/mL); in [9], 4.7 µM (≈ 1.53 µg/mL); in series [10], 2.1 µM (≈ 0.683 µg/mL); in series [4], 0.28 µM (≈ 0.0911 µg/mL). The MIC90 in [5] was 1.73 µM (≈ 0.563 µg/mL); in series [11], 0.56 µM (≈ 0.182 µg/mL); in [6], more than 10 µM; in series [12] it was more than 10 µM; in series [7] it was 4.39 µM (≈ 1.43 µg/mL). Moreover, the selectivity ratio in series [3] (Vero cells) is 225.
For the molecule `CCCCc1ccc(C(=O)/C=C/c2ccc([N+](=O)[O-])s2)cc1`, the MIC90 is 0.54 µM (≈ 0.17 µg/mL) in series [1]; more than 10 µM in [2]; more than 10 µM in series [8]; more than 10 µM in [9]; 2.14 µM (≈ 0.675 µg/mL) in series [10]; more than 10 µM in [4]. Moreover, the MIC90 in series [5] is 5.56 µM (≈ 1.75 µg/mL); in series [11] it was 1.73 µM (≈ 0.546 µg/mL); in [6], more than 10 µM; in series [12] it was more than 10 µM; in [7] it was more than 10 µM. Also, the selectivity ratio in series [3] (Vero cells) was found to be 81.
For `CCCCc1ccc(C(=O)/C=C/c2ccc([N+](=O)[O-])o2)cc1`, the MIC90 in series [1] is 1.31 µM (≈ 0.392 µg/mL); in series [2] it was more than 10 µM; in series [8] it was more than 10 µM; in series [9] it was more than 10 µM; in series [10], 3.07 µM (≈ 0.919 µg/mL); in series [4] it was 2.23 µM (≈ 0.667 µg/mL). Besides, the MIC90 was 4.21 µM (≈ 1.26 µg/mL) in series [5]; 0.58 µM (≈ 0.174 µg/mL) in series [11]; more than 10 µM in [6]; more than 10 µM in series [12]; more than 10 µM in [7]. For the same molecule, the selectivity ratio in series [3] (Vero cells) came to 57.
Regarding `O=C(/C=C/c1ccc([N+](=O)[O-])o1)c1cccc(Br)c1`, the MIC90 is 1.32 µM (≈ 0.425 µg/mL) in series [1]; more than 10 µM in series [2]; more than 10 µM in series [8]; more than 10 µM in series [9]; 2.95 µM (≈ 0.95 µg/mL) in [10]; 1.68 µM (≈ 0.541 µg/mL) in series [4]. Further, the MIC90 in series [5] was 5.65 µM (≈ 1.82 µg/mL); in series [11], 1.65 µM (≈ 0.531 µg/mL); in series [6] it was more than 10 µM; in series [12], more than 10 µM; in [7] it was 4.84 µM (≈ 1.56 µg/mL). In addition, the selectivity ratio in series [3] (Vero cells) turned out to be 52.
On to `CSc1ccc(C(=O)/C=C/c2ccc([N+](=O)[O-])o2)cc1`, for which the MIC90 in [1] is 0.66 µM (≈ 0.191 µg/mL); in series [2], more than 10 µM; in series [8] it was 4.66 µM (≈ 1.35 µg/mL); in series [9], more than 10 µM; in series [10], 1.39 µM (≈ 0.402 µg/mL); in series [4] it was 0.58 µM (≈ 0.168 µg/mL). For the same molecule, the MIC90 is 5.07 µM (≈ 1.47 µg/mL) in [5]; 0.3 µM (≈ 0.0868 µg/mL) in series [11]; more than 10 µM in [6]; more than 10 µM in [12]; 4.81 µM (≈ 1.39 µg/mL) in [7]. Also, the selectivity ratio in [3] (Vero cells) is 61.
Turning to `CO[C@H]1/C=C/O[C@@]2(C)Oc3c(C)c(O)c4c(O)c(c(/C=N/N5CCN(C)CC5)c(O)c4c3C2=O)NC(=O)/C(C)=C\C=C\[C@H](C)[C@H](O)[C@@H](C)[C@@H](O)[C@@H](C)[C@H](OC(C)=O)[C@@H]1C` [RIFAMPIN], the MIC90 in series [1] is 0.05 µM (≈ 0.0411 µg/mL); in [5], 0.19 µM (≈ 0.156 µg/mL); in [7], more than 10 µM. Further, in series [3] (vero), the selectivity ratio was 2000.
